Assay results taken from patent US20260200947A1, “FUSED CYCLIC COMPOUNDS AND USE THEREOF” (Jacobio Pharmaceuticals Co., Ltd., priority 2022, published 2026).
pIC50: −log10 of the molar value. Read-outs that look alike come from different tables or passages of the source.

Legend:
SW620 cells (K-Ras G12V) [1] = test: Phospho-ERK1/2(THR202/TYR204) HTRF assay, SW620; format: cell-based; conditions: read-out: pERK, IC50, SW620
[2] = tested on: AsPC-1 cells (K-Ras G12D)
Procedure: (§1) Each of cells in culture medium was plated in TC-treated 96-well plates at a density indicated in Table 4 and incubated in a cell incubator overnight. The next day, each of compounds was diluted in culture medium and added to the plates. After 6 days incubation in cell incubator, the cell viability was detected by CellTiter-Glo® Cell Viability Assay kit (Promega).

SW620 cells (K-Ras G12V) [3] = tested on: SW620 cells (K-Ras G12V)
Procedure: as §1

GppNp-KRAS G12D [4] = molecular target: T1, GppNp-KRAS G12D (Homo sapiens, UniProt P01116, G12D); test: GTP-K-Ras and cRAF interaction assay, GppNp-KRAS G12D; conditions: read-out: Biochemical assays, IC50, KRAS G12D GppNp; GppNp-loaded K-Ras G12D, cRAF RBD interaction, HTRF
GppNp-KRAS G12V [5] = molecular target: T2, GppNp-KRAS G12V (Homo sapiens, UniProt P01116, G12V); test: GTP-K-Ras and cRAF interaction assay, GppNp-KRAS G12V; conditions: read-out: Biochemical assays, IC50, KRAS G12V GppNp; GppNp-loaded K-Ras G12V, cRAF RBD interaction, HTRF
GDP-KRAS G12D [6] = molecular target: T3, GDP-KRAS G12D (Homo sapiens, UniProt P01116, G12D); test: SOS1 catalyzed nucleotide exchange assay, GDP-KRAS G12D; conditions: read-out: Biochemical assays, IC50, KRAS G12D GDP, GDP form K-Ras G12D, TR-FRET
GDP-KRAS G12V [7] = molecular target: T4, GDP-KRAS G12V (Homo sapiens, UniProt P01116, G12V); test: SOS1 catalyzed nucleotide exchange assay, GDP-KRAS G12V; conditions: read-out: Biochemical assays, IC50, KRAS G12V GDP, GDP form K-Ras G12V, TR-FRET
[8] = Mouse pharmacokinetic study; format: in vivo; conditions: Balb/c mouse (female); for Cl_obs / AUC(0-t) / Cmax / AUC0-24 h: plasma; for AUC(0-t): read-out: AUC0-24 h; for F: 10 mg/kg po vs 3 mg/kg iv
Procedure: The purpose of this study was to evaluate the pharmacokinetic properties of compounds in Balb/c mouse (female) following single dose administration. Six mice were needed for each compound and the six mice were divided into two groups (n=3/group), group A and group B. Mice in group A were treated with a single 3 mg/kg dose of compound (iv). Mice in group B were treated with a single 10 mg/kg dose of compound (po). Foreach mouse in group A, blood samples were collected at the time point of 0.083 h 0.5 h, 1 h, 2 h, 4 h, 8 h and 24 h post-dose. For each mouse in group B, blood samples were collected at the time point of 0.25 h, 0.5 h, 1 h, 2 h, 4 h, 8 h and 24 h post-dose. Blood samples were placed on ice until centrifugation to obtain plasma samples. The plasma samples were stored at −80° C. until analysis. The concentration of compound in plasma samples was determined using a LC-MS/MS method.

[9] = tested on: Capan-2 cells (K-Ras G12V)
Procedure: Each of cells in culture medium was seeded in 96-well plates at density indicated in Table 4 and put in a cell incubator to incubate overnight. The next day, the culture medium was removed and the compound diluted in assay medium was added in each well. […] 10 μL of cell lysates from the 96-well plates were transferred to a 384-well plate (Greiner) containing 2.5 μL/well HTRF® pre-mixed antibodies (Cisbio 64AERPEH). The plate was incubated 4 hours at 25° C. and read HTRF signals on Tecan Spark multimode microplate reader. The data were analyzed using a 4-parameter logistic model to calculate IC50 values.

GDP-KRAS G12D [10] = molecular target: T3, GDP-KRAS G12D; test: biochemical
GDP-KRAS G12V [11] = molecular target: T4, GDP-KRAS G12V; test: biochemical
GppNp-KRAS G12D [12] = molecular target: T1, GppNp-KRAS G12D; test: biochemical
GppNp-KRAS G12V [13] = molecular target: T2, GppNp-KRAS G12V; test: biochemical
[14] = Homo sapiens, SW-620, 2 hours incubation

T3 sequence (P01116 1-169 isoform P01116-2 G12D): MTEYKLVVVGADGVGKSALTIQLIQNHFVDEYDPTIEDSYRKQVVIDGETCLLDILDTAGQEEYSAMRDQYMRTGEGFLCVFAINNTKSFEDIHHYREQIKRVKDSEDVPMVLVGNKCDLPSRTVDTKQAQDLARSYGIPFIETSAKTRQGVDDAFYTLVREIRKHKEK
T1 sequence (P01116 1-169 isoform P01116-2 G12D): as above
T2 sequence (P01116 1-169 isoform P01116-2 G12V): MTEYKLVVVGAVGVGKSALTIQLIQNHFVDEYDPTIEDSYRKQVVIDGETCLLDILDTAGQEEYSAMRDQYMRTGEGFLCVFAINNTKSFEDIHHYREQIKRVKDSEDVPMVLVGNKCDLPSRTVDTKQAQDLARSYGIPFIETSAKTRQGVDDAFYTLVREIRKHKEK
T4 sequence (P01116 1-169 isoform P01116-2 G12V): as above

| Structure (SMILES) | pIC50 (SW620 cells (K-Ras G12V) [1]; 2 hours incubation) | pIC50 [2] | pIC50 (SW620 cells (K-Ras G12V) [3]) | pIC50 (GppNp-KRAS G12D [4]) | pIC50 (GppNp-KRAS G12V [5]) | pIC50 (GDP-KRAS G12D [6]) | pIC50 (GDP-KRAS G12V [7]) | also measured |
| --- | --- | --- | --- | --- | --- | --- | --- | --- |
| C#Cc1c(F)ccc2cc(N)cc(-c3c(Cl)c4c5c(nc(OCC67CCCN6CC(F)C7)nc5c3F)N3CCCOCC3CO4)c12 (single isomer, unassigned) [Compound 11B] | 7.27 | 6.09 | 6.93 | 6.63 | 6.51 | 8.24 | 8.41 | – |
| N#Cc1c(N)sc2c(F)ccc(-c3c(Cl)c4c5c(nc(OCC67CCCN6CC(F)C7)nc5c3F)N3CCCOCC3CO4)c12 (single isomer, unassigned) [Compound 66A] | – | – | – | – | – | 6.77 | 6.48 | – |
| C#Cc1c(F)ccc2cc(N)cc(-c3nc4c5c(nc(OC[C@@]67CCCN6C[C@H](F)C7)nc5c3F)N3CC(C)COCC3N4C)c12 (single isomer, unassigned) [Compound 103] | 8.00 | 6.74 | 7.84 | 6.67 | 7.00 | 8.46 | 8.75 | – |
| N#Cc1c(N)sc2c(F)ccc(-c3c(F)c4c5c(nc(OC[C@@]67CCCN6C[C@H](F)C7)nc5c3F)N3CCCOC[C@H]3CO4)c12 (single isomer, unassigned) [Compound 163B] | – | 7.85 | 8.67 | – | – | – | – | Cl_obs ([8]; 3 mg/kg, iv): 1.86 mL/min/kg; AUC(0-t) ([8]; 3 mg/kg, iv): 27300 ng·h/mL; F [8]: 25.3%; AUC(0-t) ([8]; 10 mg/kg, po): 23000 ng·h/mL; Cmax ([8]; 10 mg/kg, po, read-out: Cmax): 5310 ng/mL; pIC50 [9]: 8.21; pIC50 (GDP-KRAS G12D [10]): 9.06; pIC50 (GDP-KRAS G12V [11]): 8.98; pIC50 (GppNp-KRAS G12D [12]): 8.09; pIC50 (GppNp-KRAS G12V [13]): 7.74 |
| C#Cc1c(F)ccc2cc(N)cc(-c3nc4c5c(nc(OC[C@@]67CCCN6C[C@H](F)C7)nc5c3F)N3CCCOC[C@H]3CO4)c12 [Compound 1] | – | 6.99 | 8.03 | – | – | – | – | pIC50 (SW620 cells (K-Ras G12V) [1]; [14]): 8.35; Cl_obs ([8]; 3 mg/kg, iv): 6.33 mL/min/kg; AUC(0-t) ([8]; 3 mg/kg, iv): 7990 ng·h/mL; F [8]: 17.2%; AUC(0-t) ([8]; 10 mg/kg, po): 4590 ng·h/mL; Cmax ([8]; 10 mg/kg, po, read-out: Cmax): 1140 ng/mL; pIC50 [9]: 8.20 |
| CCc1c(F)ccc2cc(N)cc(-c3nc4c5c(nc(OC[C@@]67CCCN6C[C@H](F)C7)nc5c3F)N3CCCOC[C@H]3CO4)c12 [Compound 6A] | 7.90 | 6.76 | 7.58 | 6.30 | – | 8.91 | 8.47 | – |
| C=Cc1c(F)ccc2cc(N)cc(-c3nc4c5c(nc(OC[C@@]67CCCN6C[C@H](F)C7)nc5c3F)N3CCCOC[C@H]3CO4)c12 [Compound 6B] | 7.79 | 6.58 | 7.55 | 6.09 | – | 8.42 | 8.42 | – |
| C#Cc1c(F)ccc2cc(N)cc(-c3nc4c5c(nc(OC[C@@]67CCCN6C[C@H](F)C7)nc5c3F)N3CCCOC[C@H]3[C@H](C)O4)c12 [Compound 18A] | 7.23 | 6.41 | 7.21 | – | – | 8.27 | 8.33 | – |
| C#Cc1c(F)ccc2cc(N)cc(-c3nc4c5c(nc(OC[C@@]67CCCN6C[C@H](F)C7)nc5c3F)N3CCCCC[C@@H]3CO4)c12 [Compound 27A] | – | – | – | < 6.00 | < 6.00 | 7.32 | 7.19 | – |
| C#Cc1c(F)ccc2cc(N)cc(-c3nc4c5c(nc(OCC67CCCN6CC(F)C7)nc5c3F)N3CCCCCC3CO4)c12 (stereo not shown) [Compound 27B] | 7.91 | 6.96 | 7.77 | 6.76 | 6.25 | 8.60 | 8.57 | – |
| C#Cc1c(F)ccc2cc(N)cc(-c3nc4c5c(nc(OC[C@@]67CCCN6C[C@H](F)C7)nc5c3F)N3[C@@H](C)CCOC[C@H]3N4C)c12 [Compound 36] | – | 7.77 | 8.92 | – | – | – | – | pIC50 (SW620 cells (K-Ras G12V) [1]; [14]): 9.00; pIC50 [9]: 9.45; pIC50 (GDP-KRAS G12D [10]): 9.47; pIC50 (GDP-KRAS G12V [11]): 9.72; pIC50 (GppNp-KRAS G12D [12]): 7.71; pIC50 (GppNp-KRAS G12V [13]): 7.52 |
| C#Cc1c(F)ccc2cc(N)cc(-c3nc4c5c(nc(OC[C@@]67CCCN6C[C@H](F)C7)nc5c3F)N3[C@@H](COCC[C@@H]3C)CO4)c12 [Compound 38A] | 9.19 | 7.54 | 8.58 | 7.28 | 7.12 | 9.34 | 9.53 | AUC0-24 h ([8]; 3 mg/kg, iv): 4004 ng·h/mL; Cl_obs ([8]; 3 mg/kg, iv): 12.7 mL/min/kg; F [8]: 39.1%; AUC0-24 h ([8]; 10 mg/kg, po): 5213 ng·h/mL; Cmax ([8]; 10 mg/kg, po): 971 ng/mL |
